# Source: PubChem BioAssay (NCI)
#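 96-well plates; 48 h exposure; 5 concentrations. Endpoints by linear interpolation between flanking doses. Not reached: highest tested concentration assigned. GI50 is the concentration that inhibits growth by half. TGI marks complete inhibition of growth.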
# Assays:
# Test in all cases: NCI tumour cell line growth inhibition, 48 h
# [1] = test system: BT-549 breast
# [2] = test system: A498 renal
# [3] = test system: SN12C renal
# [4] = test system: NCI-H226 lung
# [5] = test system: MALME-3M melanoma
# [6] = test system: OVCAR-3 ovarian
# [7] = test system: NCI/ADR-RES ovarian
# [8] = test system: T-47D breast
# [9] = test system: PC-3 prostate
# [10] = test system: CCRF-CEM leukemia
# [11] = test system: IGROV1 ovarian
# [12] = test system: SK-OV-3 ovarian
# [13] = test system: HT29 colon
# [14] = test system: NCI-H522 lung
# [15] = test system: SR leukemia
# [16] = test system: NCI-H23 lung
# [17] = test system: SF-295 CNS
# [18] = test system: HCT-116 colon
# [19] = test system: SK-MEL-2 melanoma
# [20] = test system: M14 melanoma
# [21] = test system: U251 CNS
# [22] = test system: CAKI-1 renal
# [23] = test system: RXF 393 renal
# [24] = test system: UACC-257 melanoma
# [25] = test system: MCF7 breast
# [26] = test system: SF-268 CNS
# [27] = test system: COLO 205 colon
# [28] = test system: OVCAR-4 ovarian
# [29] = test system: SNB-75 CNS
# [30] = test system: OVCAR-5 ovarian
# [31] = test system: HL-60(TB) leukemia
# [32] = test system: HCT-15 colon
# [33] = test system: MOLT-4 leukemia
# [34] = test system: MDA-MB-435
# [35] = test system: SK-MEL-5 melanoma
# [36] = test system: HS 578T breast
# [37] = test system: 786-0 renal
# [38] = test system: A549 NSCLC
# [39] = test system: ACHN renal
# [40] = test system: MDA-MB-231 breast
# [41] = test system: NCI-H460 lung
# [42] = test system: DU-145 prostate
# [43] = test system: SK-MEL-28 melanoma
# [44] = test system: UO-31 renal
# [45] = test system: SF-539 CNS
# [46] = test system: LOX IMVI melanoma
# [47] = test system: HCC-2998 colon
# [48] = test system: OVCAR-8 ovarian
# [49] = test system: UACC-62 melanoma
# [50] = test system: RPMI-8226 leukemia
# [51] = test system: TK-10 renal
# [52] = test system: K-562 leukemia
# [53] = test system: HOP-92 NSCLC
# [54] = test system: KM12 colon
# [55] = test system: SW-620 colon
# [56] = test system: HOP-62 NSCLC
# [57] = test system: SNB-19 CNS
# [58] = test system: EKVX NSCLC
smiles,measurement,setting,value
O=C1NC(=NCCc2ccccc2Cl)S/C1=C\c1ccc2ncccc2c1,GI50,[1],4.94 µM
same,TGI,[1],> 22 µM
same,GI50,[2],3.68 µM
same,TGI,[2],17.6 µM
same,GI50,[3],7.72 µM
same,TGI,[3],> 25 µM
same,GI50,[4],7.61 µM
same,TGI,[4],> 25 µM
same,GI50,[5],> 21.3 µM
same,TGI,[5],> 25 µM
same,GI50,[6],5.31 µM
same,TGI,[6],19.8 µM
same,GI50,[7],7.73 µM
same,TGI,[7],> 25 µM
same,GI50,[8],7.34 µM
same,TGI,[8],> 25 µM
same,GI50,[9],6.26 µM
same,TGI,[9],> 25 µM
same,GI50,[10],4.09 µM
same,TGI,[10],> 25 µM
same,GI50,[11],5.75 µM
same,TGI,[11],> 25 µM
same,GI50,[12],5.94 µM
same,TGI,[12],> 20.4 µM
same,GI50,[13],2.79 µM
same,TGI,[13],> 18.9 µM
same,GI50,[14],4.13 µM
same,TGI,[14],12.3 µM
same,GI50,[15],0.622 µM
same,TGI,[15],2.25 µM
same,GI50,[16],6.06 µM
same,TGI,[16],> 25 µM
same,GI50,[17],2.14 µM
same,TGI,[17],> 11.2 µM
same,GI50,[18],0.936 µM
same,TGI,[18],> 25 µM
same,GI50,[19],5.86 µM
same,TGI,[19],14 µM
same,GI50,[20],6.48 µM
same,TGI,[20],> 25 µM
same,GI50,[21],2.64 µM
same,TGI,[21],> 21.4 µM
same,GI50,[22],3.3 µM
same,TGI,[22],> 14.8 µM
same,GI50,[23],4.85 µM
same,TGI,[23],> 25 µM
same,GI50,[24],11.2 µM
same,TGI,[24],> 25 µM
same,GI50,[25],1.32 µM
same,TGI,[25],> 25 µM
same,GI50,[26],4.68 µM
same,TGI,[26],> 25 µM
same,GI50,[27],3.98 µM
same,TGI,[27],> 25 µM
same,GI50,[28],4.26 µM
same,TGI,[28],> 14.9 µM
same,GI50,[29],1.7 µM
same,TGI,[29],> 14.9 µM
same,GI50,[30],12.2 µM
same,TGI,[30],> 25 µM
same,GI50,[31],2.63 µM
same,TGI,[31],10.3 µM
same,GI50,[32],1.18 µM
same,TGI,[32],> 25 µM
same,GI50,[33],5.4 µM
same,TGI,[33],17.2 µM
same,GI50,[34],1.45 µM
same,TGI,[34],9.81 µM
same,GI50,[35],6.92 µM
same,TGI,[35],24.6 µM
same,GI50,[36],7.03 µM
same,TGI,[36],> 17 µM
same,GI50,[37],7.66 µM
same,TGI,[37],> 25 µM
same,GI50,[38],5.16 µM
same,TGI,[38],> 25 µM
same,GI50,[39],6.5 µM
same,TGI,[39],> 25 µM
same,GI50,[40],10.3 µM
same,TGI,[40],> 25 µM
same,GI50,[41],6.34 µM
same,TGI,[41],> 25 µM
same,GI50,[42],6.9 µM
same,TGI,[42],> 25 µM
same,GI50,[43],10.7 µM
same,TGI,[43],> 25 µM
same,GI50,[44],5.13 µM
same,TGI,[44],> 25 µM
same,GI50,[45],3.13 µM
same,TGI,[45],13.2 µM
same,GI50,[46],1.57 µM
same,TGI,[46],> 25 µM
same,GI50,[47],6.33 µM
same,TGI,[47],> 25 µM
same,GI50,[48],8.16 µM
same,TGI,[48],> 25 µM
same,GI50,[49],6.49 µM
same,TGI,[49],> 25 µM
same,GI50,[50],1.83 µM
same,TGI,[50],> 25 µM
same,GI50,[51],3.79 µM
same,TGI,[51],> 20.1 µM
same,GI50,[52],1.1 µM
same,TGI,[52],> 25 µM
same,GI50,[53],4 µM
same,TGI,[53],22.2 µM
same,GI50,[54],2.5 µM
same,TGI,[54],> 25 µM
same,GI50,[55],1.09 µM
same,TGI,[55],> 25 µM
same,GI50,[56],6.26 µM
same,TGI,[56],> 25 µM
same,GI50,[57],7.4 µM
same,TGI,[57],> 25 µM
COC(=O)c1nc2c(C)c(O)c(O)c([C@H](C)CCC=C(C)C)c2o1,TGI,[1],> 100 µM
same,TGI,[2],39 µM
same,TGI,[4],34.2 µM
same,TGI,[5],> 100 µM
same,TGI,[6],> 100 µM
same,TGI,[7],> 100 µM
same,TGI,[8],> 100 µM
same,TGI,[9],93.5 µM
same,TGI,[10],29.6 µM
same,TGI,[11],48.1 µM
same,TGI,[12],> 100 µM
same,TGI,[58],> 100 µM
same,TGI,[13],37 µM
same,TGI,[15],78.5 µM
same,TGI,[16],89.8 µM
same,TGI,[17],47 µM
same,TGI,[18],41.5 µM
same,TGI,[19],59.7 µM
same,TGI,[20],> 100 µM
same,TGI,[21],> 100 µM
same,TGI,[22],50.9 µM
same,TGI,[23],39.6 µM
same,TGI,[24],78 µM
same,TGI,[25],> 100 µM
same,TGI,[26],> 100 µM
same,TGI,[27],35.6 µM
same,TGI,[28],> 100 µM
same,TGI,[29],56.1 µM
same,TGI,[30],> 100 µM
same,TGI,[31],45.6 µM
same,TGI,[32],> 100 µM
same,TGI,[33],> 100 µM
same,TGI,[34],> 100 µM
same,TGI,[35],28.4 µM
same,TGI,[36],87.4 µM
same,TGI,[37],39.5 µM
same,TGI,[38],57.1 µM
same,TGI,[39],53.8 µM
same,TGI,[40],> 100 µM
same,TGI,[41],> 100 µM
same,TGI,[42],> 100 µM
same,TGI,[43],> 100 µM
same,TGI,[44],41.5 µM
same,TGI,[45],35.7 µM
same,TGI,[46],> 100 µM
same,TGI,[47],96.2 µM
same,TGI,[48],> 100 µM
same,TGI,[50],> 100 µM
same,TGI,[51],> 100 µM
same,TGI,[52],> 100 µM
same,TGI,[53],66.7 µM
same,TGI,[54],67.4 µM
same,TGI,[55],> 100 µM
same,TGI,[56],67.7 µM
same,TGI,[57],> 100 µM
